# Source: patent US12123009B2, “Methods and compositions for PPO herbicide tolerance in plants” (Monsanto Technology LLC, priority 2015, dated 2024)
# B1: H_N90: microbial HemG protoporphyrinogen oxidase, SEQ ID NO:1 (SEQ ID NO:11 lacking start methionine; variants 18, 19) (protein, listed as Enterobacter cloacae)
# chain: MKALVLYSTRDGQTHAIASYIASCMKEKAECDVIDLTHGEHVNLTQYDQVLIGASIRYGHFNAVLDKFIKRNVDQLNNMPSAFFCVNLTARKPEKRTPQTNPYVRKFLLATPWQPALCGVFAGALRYPRYRWIDKVMIQLIMRMTGGETDTSKEVEYTDWEQVKKFAEDFAKLSYKKAL
# Key:
# [1] = system: maize, non-transgenic or F1 containing H_N10 (SEQ ID NO: 4); assay: Efficacy field trial of F1 maize; format: in vivo
# Procedure: This F1 population was segregating (50% hemizygous and 50% null) and selection for transgenic plants was not conducted prior to injury ratings. The overall average injury ratings for such a population are expected to be higher than a homogenous transgenic population since it is difficult to discern non-transgenic plants from transgenic plants. The trials were conducted at two locations with two replicates and 3 treatments per construct. Non-transgenic maize plants were used as a negative control. The herbicide application treatments were as follows: Treatment 1 was 0.036 lb ai/acre S-3100 applied at V2 followed by (fb) V4 fb V8; Treatment 2: was 0.072 lb ai/acre S-3100 applied at V2 fb V4 fb V8; Treatment 3: was 0.144 lb ai/acre S-3100 applied at V2 fb V4 fb V8. Crop Injury Percent ratings were assessed at the V2 growth stage (CIPV2) and at the V4 growth stage (CIPV4) at 5 to 7 days after treatment (the error V2 and error V4 are half of the least significant difference (LSD)). The crop injury ratings were combined for both locations.
# [2] = target: Maize (Zea mays) protoporphyrinogen oxidase (PPO), wild type; assay: PPO enzyme assay (plastid extract); format: biochemical; settings: 3 μM protogen; pH 7.4, 30° C.; read-out: S-3100 IC50
# [3] = system: soybean (A3555), non-transgenic or expressing H_N10 (SEQ ID NO: 4); assay: R0 soybean sprayed with S-3100; format: in vivo; settings: 5 g/ha, V3, 8 days
# Procedure: In soybean, excised embryos (A3555) were transformed with the transformation constructs 1 and 11 using A. tumefaciens and standard methods known in the art. […] Regenerated R0 transgenic plantlets were grown in the greenhouse. […] The herbicide was sprayed at the V3 developmental stage with three fully developed trifoliate leaves and injury ratings were assessed 8 days after treatment. The percentage of plants that were deemed highly tolerant (15% or less injury) was noted.
# The herbicide was sprayed at the V3 developmental stage with three fully developed trifoliate leaves and injury ratings taken 8 days after treatment. The percentage of plants that were deemed highly tolerant (25% or less injury) was noted.
# [4] = system: leaf discs of soybean, non-transgenic or expressing H_N10 (SEQ ID NO: 4); assay: Leaf disc assay, soybean; format: in vivo; settings: 1 micromolar
# Procedure: A leaf-disc assay was employed for rapid and minimally damaging assessment of herbicide tolerance in transgenic plants expressing a recombinant PPO enzyme. Leaf tissue was sampled from the youngest fully-green leaf of corn and soybean plants. Five 4-mm diameter leaf discs were cut from the leaf samples using a disposable biopsy punch with a plunger (Integra® Miltex®, Inc., York. Pennsylvania) and the leaf discs were placed into one ml of incubation solution (1 mM MES, pH 6.5, 1% w/v sucrose, 1% (v/v) acetone) in 24-well polystyrene plates with lids. For herbicide tolerance analysis, S-3100 was added to the incubation solution to a final concentration of 1 micromolar. Vacuum infiltration was applied and plates of leaf discs were incubated in continuous darkness for one day at room temperature (23-24° C.) followed by one (soybean) or two (corn) days continuous light incubation under overhead fluorescent and incandescent bulbs (520 uE) at 26-27° C. Leaf disc injury was then scored visually on a scale from 0 (lowest injury) to 4 (highest injury), with lower scores indicating better tolerance to the PPO herbicide.
# [5] = target: H_N110 (SEQ ID NO: 10), microbial HemG protoporphyrinogen oxidase; assay: PPO enzyme assay (bacterial extract); settings: read-out: S-3100 IC50; 3 μM protogen; pH 7.4, 37° C.
# [6] = system: transgenic F1 maize expressing H_N10 (SEQ ID NO:4); assay: F1 maize greenhouse herbicide tolerance; format: in vivo; settings: 40 grams/ha, V3, seven days
# Procedure: The plants were treated with 40 grams/ha S-3100 at the V3 growth stage and injury ratings were taken seven days after treatment.
# [7] = target: Soybean (Glycine max) protoporphyrinogen oxidase (PPO), wild type; assay: PPO enzyme assay (plastid extract); format: biochemical; settings: 3 μM protogen; pH 7.4, 30° C.; read-out: S-3100 IC50
# transgenic maize plants = assay: R0 transgenic maize 40 g/ha S-3100 spray test; format: in vivo
# From the text: H_N60 (SEQ ID NO:3). […] These five constructs had the same promoter plus leader plus intron combination, with two different targeting peptide (TP) sequences, and the same 3′UTR sequence. Leaf samples were taken from the R0 plants and analyzed by PCR to determine the transgene copy number. Single copy plants for up to 12 unique events per construct were transplanted to pots, selfed and outcrossed to generate R1 and F1 seed, respectively, for future testing. Multi-copy plants and extra single copy plants were sprayed with 40 grams/ha 5-3100 at approximately the V5 growth stage and injury ratings were taken 7 days after treatment. The average percent (%) injury for all plants expressing each PPO enzyme and the number of plants that were deemed highly tolerant (less than 10% injury) was noted, where each plant is a unique single or multi-copy transformant.
# [8] = H_N10, construct 6, Trt 1, 0.036 lb ai/acre
# [9] = H_N10, construct 6, Trt 2, 0.072 lb ai/acre
# [10] = H_N10, construct 6, Trt 3, 0.144 lb ai/acre
# [11] = H_N10, construct 16, Trt 1, 0.036 lb ai/acre
# [12] = H_N10, construct 16, Trt 2, 0.072 lb ai/acre
# [13] = H_N10, construct 16, Trt 3, 0.144 lb ai/acre
# [14] = wildtype, Trt 1, 0.036 lb ai/acre V2 fb V4 fb V8
# [15] = wildtype, Trt 2, 0.072 lb ai/acre V2 fb V4 fb V8
# [16] = wildtype, Trt 3, 0.144 lb ai/acre V2 fb V4 fb V8
# [17] = H_N10 (SEQ ID NO: 4), construct 11
# [18] = 40 grams/ha S-3100 at V5, 7 days after treatment, R0 plants
molecule,measurement,setting,value
"CCOC(=O)COc1ncccc1Oc1cc(-n2c(=O)cc(C(F)(F)F)n(C)c2=O)c(F)cc1Cl [S-3100, ethyl [3-2-chloro-4-fluoro-5-(1-methyl-6-trifluoromethyl-2,4-dioxo-1,2,3,4-tetrahydropyrimidin-3-yl)phenoxy]-2-pyridyloxylacetate]","CIPV2 (Crop Injury Percent, V2)",[1]; [8],37.5%
same,"CIPV4 (Crop Injury Percent, V4)",[1]; [8],0%
same,"CIPV2 (Crop Injury Percent, V2)",[1]; [9],37.5%
same,"CIPV4 (Crop Injury Percent, V4)",[1]; [9],0%
same,"CIPV2 (Crop Injury Percent, V2)",[1]; [10],50%
same,"CIPV4 (Crop Injury Percent, V4)",[1]; [10],0%
same,"CIPV2 (Crop Injury Percent, V2)",[1]; [11],96.3%
same,"CIPV4 (Crop Injury Percent, V4)",[1]; [11],98.5%
same,"CIPV2 (Crop Injury Percent, V2)",[1]; [12],99.5%
same,"CIPV4 (Crop Injury Percent, V4)",[1]; [12],99.5%
same,"CIPV2 (Crop Injury Percent, V2)",[1]; [13],99.5%
same,"CIPV4 (Crop Injury Percent, V4)",[1]; [13],99.5%
same,injury following V2 and V4 application,"[1]; non-transgenic and construct 16, all three treatments",94.6-99.5%
same,"CIPV2 (Crop Injury Percent, V2)",[1]; [14],94.6%
same,"CIPV4 (Crop Injury Percent, V4)",[1]; [14],99%
same,"CIPV2 (Crop Injury Percent, V2)",[1]; [15],99.5%
same,"CIPV4 (Crop Injury Percent, V4)",[1]; [15],99.5%
same,"CIPV2 (Crop Injury Percent, V2)",[1]; [16],99.5%
same,"CIPV4 (Crop Injury Percent, V4)",[1]; [16],99.5%
same,IC50,[2],3 nM
same,average injury rating,[3]; [17],47%
same,highly tolerant plants (25% or less injury),[3]; [17],30%
same,average injury rating,[3]; non-transgenic,60%
same,highly tolerant plants (25% or less injury),[3]; non-transgenic,no highly tolerant plants
same,leaf disc injury rating (0 lowest to 4 highest injury),"[4]; H_N10, construct 1",zero
same,leaf disc injury rating (0 lowest to 4 highest injury),"[4]; H_N10, construct 11",1.6
same,leaf disc injury rating (0 lowest to 4 highest injury),[4]; non-transgenic,2.6
same,IC50,[5],> 100000 nM
same,events producing highly tolerant plants (10% or less injury),"[6]; H_N10, construct 6, out of 18 events",13 events
same,events producing highly tolerant plants (10% or less injury),"[6]; H_N10, construct 16",no events
same,IC50,[7],4 nM
B1,Average Injury,transgenic maize plants; [18],31.4%
same,Highly Tolerant (number of plants with less than 10% injury),transgenic maize plants; [18],44
same,injury rates when expressed in transgenic plants (crop tolerance to a PPO herbicide),transgenic maize plants; R0 transgenic maize data,reduced injury rates
